# Reference: PMC12711018, “Structural flexibility of the nicotinamide group of NADH in butanol dehydrogenase YqdH from Fusobacterium nucleatum” (PLOS One, 2025)
# Biological target: T1, FnYqdH (butanol dehydrogenase YqdH) (Fusobacterium nucleatum, UniProt Q8R612)
# T1 construct: gene FN1415; recombinant from pPRO-EX-HTA in E. coli BL21 (DE3); His6 tag removed with TEV protease
# T1 sequence (Q8R612 1-385): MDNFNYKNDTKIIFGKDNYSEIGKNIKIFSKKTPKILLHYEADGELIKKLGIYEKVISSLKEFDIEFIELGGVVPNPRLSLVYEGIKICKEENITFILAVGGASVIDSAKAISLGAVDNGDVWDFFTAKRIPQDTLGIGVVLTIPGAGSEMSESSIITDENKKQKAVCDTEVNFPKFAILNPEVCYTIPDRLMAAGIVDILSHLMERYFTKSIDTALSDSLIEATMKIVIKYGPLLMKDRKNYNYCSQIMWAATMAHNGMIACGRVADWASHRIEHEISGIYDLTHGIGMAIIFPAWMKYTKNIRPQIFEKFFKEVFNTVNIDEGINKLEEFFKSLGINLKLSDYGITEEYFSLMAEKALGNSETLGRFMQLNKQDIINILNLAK
# Test: X-ray crystallography, crystal soaked with NADH ([…] A)
# Assay type: binding
# Conditions: soak 1 min in 10 mM NADH, 2 mM Co2+, 25% glycerol; crystals grown in 0.1 M HEPES pH 7.5, 1.8 M ammonium phosphate; only the ADP part is seen and modelled as ADP, nicotinamide part disordered
smiles,measurement,value
NC(=O)C1=CN([C@@H]2O[C@H](COP(=O)(O)OP(=O)(O)OC[C@H]3O[C@@H](n4cnc5c(N)ncnc54)[C@H](O)[C@@H]3O)[C@@H](O)[C@H]2O)C=CC1 [NADH],"X-ray crystallography, crystal soaked with NADH (2.70 A)",presence of the adenine and diphosphate groups of the NADH molecule
